From patent US20250381165A1, “Method of Use for Benzofuran Compounds” (Tampa Bay Research Institute, Inc., priority 2024, published 2025) come the findings set out here.

One data set concerns B3Z cells. Description: Direct treatment of B3Z cells. The conditions noted are these: BzFβ alone; data not shown. Type of data set: cell-based, murine.
The nature of data set [1]: In vivo toxicity after gavage, iv or im injection. The protocol: Six- to ten-week-old male and female C57BL/6NCrl mice (cat. no. 027, Charles River Laboratories, Wilmington MA) were used for all animal studies. The mice were maintained in accord with the NIH Guide for the Care and Use of Laboratory Animals. Experimental procedures were performed in accord with research protocols approved by the Tampa Bay Research Institute's Institutional Animal Care and Use Committee. Mice were maintained in an INOVIVE individually ventilated cage system with 3 mice per cage containing 100% virgin wood pulp bedding (Harlan Teklad™, Harlan Sprague Dawley Inc., Indianapolis, IA; cat. no. 7099). Water and food (Harland Teklad™; cat. no. 8640) were available ad libitum. The mice were maintained on a cycle of 12 h of light and 12 h of dark in an environment with a temperature of 74-76° […]. and 40-60% humidity. All cages underwent 40 air changes hourly in the negative pressure mode, in accordance with manufacturer's recommendations. Both the intake and exhaust air from the system were filtered through HEPA filters to maintain a clean environment. […]
Mice were gavaged with BzFβ at doses ranging from 25 mg/kg body to 100 mg/kg body weight, injected intravenously (iv) with 50 μg BzFβ or injected intramuscularly with BzFβ at 25 to 40 mg/kg body weight. For two weeks post-treatment, water intake and weight were monitored. […]

The test system of data set [2] is DC2.4 cells (B3Z activation). Description: Cross-presentation of whole OVA by DC2.4 to B3Z. It is filed as cell-based, murine. The note with it: co-treatment 6 h, 0.5 mg/mL OVA; p<0.001 all doses. How it is done:
DC2.4 cells (5×10^5 cells/ml) were seeded at 100 μL/well in 96 well plates and cultured overnight. The cells were washed with DPBS, and co-exposed to 0.5 mg/mL soluble whole OVA, along with increasing concentrations of BzFβ for 6 h, The cells were then co-cultured with equal number of B3Z cells at 37° C. for 19 h.

Data set [3] has as its system murine splenocytes (B3Z activation). Description: B3Z activation by murine splenocytes (OVA or SIINFEKL). It is filed as cell-based. How it is done: Murine splenocytes were plated at a density of 2.5 or 5×10^4 cells/well (100 μL/well in 96 well plates) and cultured overnight in cRPMI. The cells were washed with DPBS and then treated for 1-24 h with the indicated concentrations of BzFβ or co-treated with the indicated concentrations of BzFβ and 0.5 mg/mL OVA, suspended in complete media. Cells treated with BzFβ only were pulsed with 0.5 nM SIINFEKL pulsed for 1 h. The cells were then co-cultured with equal number of B3Z cells at 37° C. for 19 h.

For `O=C(O)/C=C/c1ccc2occc2c1` [BzFβ, (2E)-3-(1-benzofuran-5-yl)prop-2-enoic acid], in the data set on B3Z cells, the “effect of direct treatment on B3Z viability or activation” value is given as “no effect on cell viability or cell activation”. Moreover, in data set [1] (at the doses tested), the in vivo toxicity result is “non-toxic”. Further, the “body and organ weights” value in data set [1] (gavage 25-100 mg/kg, iv 50 μg, im 25-40 mg/kg, two weeks) is reported as “no differences were measured”. The “B3Z response, cross-presentation of OVA” value in data set [2] was “significantly enhance the B3Z response”. In addition, the “ability of splenocytes to activate B3Z, OVA” value in data set [3] (co-treatment 24 h, 0.5 mg/mL OVA) is reported as “enhanced their ability to activate B3Z”. The “ability of splenocytes to activate B3Z, SIINFEKL” value in data set [3] (pre-treatment 24 h, then 0.5 nM SIINFEKL 1 h) is “also enhanced their ability to activate the B3Z”. In addition, the doses with significant enhancement of B3Z activation, OVA in data set [3] (splenocytes, 0.5 mg/mL OVA, p<0.0001) is greater than 6.25 µg/mL. In addition, in data set [3] (splenocytes, 24 h, 0.5 nM SIINFEKL 1 h, p<0.0001), the “doses with significant enhancement of B3Z activation, SIINFEKL” value is greater than 12.5 µg/mL.
